Experimental data: paper PMC10477347, “O-methyltransferase-like enzyme catalyzed diazo installation in polyketide biosynthesis” (Nature Communications, 2023)
One block for each compound: values may come before it.

Tests used:
AlpH = target: T1, AlpH (Streptomyces ambofaciens, UniProt Q6VMJ4); experiment: surface plasmon resonance (Biacore 8K, AlpH immobilized on CM5); format: binding
T1 construct: N-terminal His6-tagged, pET28a, E. coli BL21(DE3); homodimer in the apo crystal; gene amplified from kinamycin BAC 3C2
T1 sequence (Q6VMJ4 entry or part of it): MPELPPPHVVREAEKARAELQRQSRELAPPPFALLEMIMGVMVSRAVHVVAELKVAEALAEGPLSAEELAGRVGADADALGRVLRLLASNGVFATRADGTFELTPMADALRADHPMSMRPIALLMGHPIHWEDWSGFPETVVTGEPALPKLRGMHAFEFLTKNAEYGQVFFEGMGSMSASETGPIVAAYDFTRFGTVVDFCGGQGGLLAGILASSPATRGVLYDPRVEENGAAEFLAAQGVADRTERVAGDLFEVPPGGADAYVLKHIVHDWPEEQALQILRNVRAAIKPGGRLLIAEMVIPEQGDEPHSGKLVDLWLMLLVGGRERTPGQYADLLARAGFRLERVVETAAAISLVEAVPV
Text: surface plasmon resonance (Biacore 8K, AlpH immobilized on CM5) on AlpH | Surface plasmon resonance analysis of AlpH and gluN2H3 also identified a specific interaction between them

[1] = target: AlpH, O-methyltransferase-like protein from the kinamycin biosynthetic gene cluster; experiment: crystal structure; apo-AlpH, hanging drop vapor diffusion at 16 °C; protein in 20 mM Tris-HCl pH 7.5, 100 mM NaCl, 1 mM DTT, 1 mM EDTA; reservoir 0.03 M citric acid, 0.07 M Bis-Tris propane pH 7.6, 20% PEG3350; molecular replacement, 1.87 Å
AlpJ = target: T2, AlpJ (Streptomyces ambofaciens, UniProt Q6VMI5); experiment: HPLC of products […] and […] from one-pot reaction with AlpK; format: biochemical; conditions: NADH, FAD, pH 7.5, 30 °C
T2 construct: pET28a, Ni-NTA purified from E. coli BL21(DE3); gene amplified from kinamycin BAC 3C2
T2 sequence (Q6VMI5 1-232): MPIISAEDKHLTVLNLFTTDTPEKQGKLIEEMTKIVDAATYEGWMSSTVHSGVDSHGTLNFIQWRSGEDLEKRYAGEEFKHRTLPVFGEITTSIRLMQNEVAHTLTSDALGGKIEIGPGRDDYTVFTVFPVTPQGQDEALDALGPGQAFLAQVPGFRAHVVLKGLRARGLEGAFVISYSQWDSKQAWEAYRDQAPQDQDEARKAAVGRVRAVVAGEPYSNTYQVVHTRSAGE

Compound: NNC(=O)CC[C@H](N)C(=O)O [gluN2H3]
Kd (AlpH): 114 nM

stoichiometry N [1]: 2
Compound: AlpH, O-methyltransferase-like protein from the kinamycin biosynthetic gene cluster (enzyme)

Compound: Cc1cc(O)c2c3c(c(O)cc2c1)C(=O)c1c(O)cccc1C3=O [DHR]
HPLC of products 1 and 6 from one-pot reaction with AlpK (AlpJ): prepared in situ by incubating AlpJ and AlpK with DHR and NADH
